Laboratory results as given in patent US8362067B2, “3-aminoalkyl-1,3-dihydro-2H-indol-2-one derivatives, preparation thereof and therapeutic use thereof” (Sanofi, priority 2008, dated 2013).

Experiments:
[1] = target: human arginine-vasopressin V1a receptors (Homo sapiens, UniProt P37288); experiment: Affinity for human V1a receptors: displacement of [3H]-AVP; assay type: binding; conditions: binding, displacement of [3H]-AVP
Protocol: (§1) The affinity of the compounds of formula (I) according to the invention for arginine-vasopressin V1a receptors was determined in vitro using the method described by M. Thibonnier et al., J. Biol. Chem., 1994, 269, 3304-3310. This method consists in studying in vitro the displacement of tritiated arginine-vasopressin ([^3H]-AVP) at the V1a receptors present on membrane or cell preparations carrying rat or human V1a receptors.
(§2) The comparative pharmacological results of Compounds Nos. 17, 38, 46, 107 and 108 according to the invention with the compounds α and β of the prior art on the various in vitro tests measuring the affinity at human V1a, V1b, V2 and oxytocin receptors are illustrated in the following TABLE XV. The results are expressed by the 50% inhibitory concentration (IC50) expressed on a nanomolar basis (nM).

human V1b receptors = target: T1, human V1b receptors (Homo sapiens, UniProt P47901); experiment: Affinity for human V1b receptors: displacement of [3H]-AVP; conditions: binding
T1 sequence (P47901 1-424): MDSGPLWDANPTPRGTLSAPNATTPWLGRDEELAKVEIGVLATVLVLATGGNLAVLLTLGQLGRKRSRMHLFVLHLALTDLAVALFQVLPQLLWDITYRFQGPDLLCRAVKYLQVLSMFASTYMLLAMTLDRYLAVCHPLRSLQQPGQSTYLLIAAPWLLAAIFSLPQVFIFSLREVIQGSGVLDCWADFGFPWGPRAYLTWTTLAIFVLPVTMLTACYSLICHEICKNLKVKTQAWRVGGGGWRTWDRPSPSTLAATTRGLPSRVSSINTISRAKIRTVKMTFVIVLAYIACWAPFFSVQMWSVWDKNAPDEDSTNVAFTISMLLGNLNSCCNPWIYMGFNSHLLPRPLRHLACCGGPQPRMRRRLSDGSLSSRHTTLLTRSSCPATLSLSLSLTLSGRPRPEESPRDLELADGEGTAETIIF
Protocol: as §1, with “V1b” for “V1a”, “Y. de Keyser” for “M. Thibonnier”, “al. in Febs Letters,” for “al., J. Biol. Chem.,”, “356, 215-220.” for “269, 3304-3310.”, “on” for “on membrane or”, “carrying” for “carrying rat or”
as §2

human V2 receptors = human V2 receptors (Homo sapiens, UniProt P30518); experiment: Affinity for vasopressin V2 receptors; assay type: binding; conditions: binding
Chain of human V2 receptors (P30518 whole entry): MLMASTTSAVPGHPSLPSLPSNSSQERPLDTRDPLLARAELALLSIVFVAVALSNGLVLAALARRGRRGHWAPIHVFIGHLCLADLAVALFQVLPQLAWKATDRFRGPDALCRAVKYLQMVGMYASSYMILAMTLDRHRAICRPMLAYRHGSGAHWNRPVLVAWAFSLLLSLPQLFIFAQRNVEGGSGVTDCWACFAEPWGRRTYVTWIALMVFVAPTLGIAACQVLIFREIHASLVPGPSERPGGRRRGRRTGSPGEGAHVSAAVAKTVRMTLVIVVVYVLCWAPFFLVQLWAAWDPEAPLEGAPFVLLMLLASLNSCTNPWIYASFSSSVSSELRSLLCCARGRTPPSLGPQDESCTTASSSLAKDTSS
Source text: The affinity of the compounds of formula (I) according to the invention for vasopressin V2 receptors was also studied (method described by M. Birnbaumer et al. in Nature (Lond.), 1992, 357, 333-335).
as §2

[2] = target: T2, human uterine oxytocin receptor (Homo sapiens, UniProt P30559); experiment: Affinity for oxytocin receptors: displacement of a radioiodinated oxytocin analog; assay type: binding; conditions: binding, radioiodinated oxytocin analog
T2 construct: expressed in transfected cells
T2 sequence (P30559 1-389): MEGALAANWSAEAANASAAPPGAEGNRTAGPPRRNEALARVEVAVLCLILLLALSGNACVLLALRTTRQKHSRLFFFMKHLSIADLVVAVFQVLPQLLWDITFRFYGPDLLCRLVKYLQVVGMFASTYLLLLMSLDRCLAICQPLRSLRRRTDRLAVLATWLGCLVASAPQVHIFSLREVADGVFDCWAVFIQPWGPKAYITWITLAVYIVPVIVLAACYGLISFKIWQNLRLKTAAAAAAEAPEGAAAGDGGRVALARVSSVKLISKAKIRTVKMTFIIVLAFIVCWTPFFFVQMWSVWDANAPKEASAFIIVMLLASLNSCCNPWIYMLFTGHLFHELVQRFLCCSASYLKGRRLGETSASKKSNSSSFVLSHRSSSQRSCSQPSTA
Protocol: The affinity of the compounds according to the invention for oxytocin receptors was determined in an in vitro binding test using the method described by J. Elands et al. in Eur. J. Pharmacol., 1987, 147, 197-207. This method consists in studying in vitro the displacement of a radioiodinated oxytocin analog at the oxytocin receptors in a cell membrane preparation transfected with the human uterine oxytocin receptor.
as §2

human V1a receptors = human V1a receptors (Homo sapiens, UniProt P37288); experiment: Measurement of intracellular calcium (FLIPR) on cells expressing human V1a receptors; assay type: cell-based; conditions: blocking the pharmacological effects brought about by arginine-vasopressin (FLIPR and platelet aggregation tests)
Chain of human V1a receptors (P37288 whole entry): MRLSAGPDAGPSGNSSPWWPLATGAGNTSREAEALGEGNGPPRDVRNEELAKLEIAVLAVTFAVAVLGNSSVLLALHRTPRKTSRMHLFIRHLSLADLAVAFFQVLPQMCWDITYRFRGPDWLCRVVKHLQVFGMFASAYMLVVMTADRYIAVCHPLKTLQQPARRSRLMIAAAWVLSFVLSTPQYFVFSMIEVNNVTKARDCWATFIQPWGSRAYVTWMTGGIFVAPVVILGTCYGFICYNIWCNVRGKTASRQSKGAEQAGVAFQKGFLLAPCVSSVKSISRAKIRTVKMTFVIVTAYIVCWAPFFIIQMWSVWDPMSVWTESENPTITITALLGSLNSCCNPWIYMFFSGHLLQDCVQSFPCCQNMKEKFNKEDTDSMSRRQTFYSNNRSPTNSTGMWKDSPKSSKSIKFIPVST
Protocol: The agonist or antagonist nature of the compounds is determined in vitro in a test for the measurement of intracellular calcium (FLIPR) on cells expressing human V1a receptors according to the general technique described in Sullivan et al., Methods Mol. Biol., 1999, 114, 125-133, using 1 μM of Fluo4 AM, and in a test for platelet aggregation induced with AVP on human PRP (platelet-rich plasma) according to the methodology described in J. Clin. Invest., 1993, 92, 224-231. The compounds are preincubated 30 minutes before the addition of the arginine-vasopressin in order to determine the agonist and antagonist properties of these molecules.

Chain of human arginine-vasopressin V1a receptors (P37288 whole entry): as above

IC50 [1] | IC50 (human V1b receptors) | IC50 (human V2 receptors) | IC50 [2] | agonist or antagonist nature at V1a receptors (human V1a receptors) | melting point | SMILES
2.4 nM | > 1000 nM | 450 nM | 390 nM | antagonists of V1a receptors | 232 °C | COc1cc2c(cc1Cl)C(CCCN1CCNCC1)(c1ccccc1F)C(=O)N2S(=O)(=O)c1ccc(OC(C)C)cc1.Cl (single isomer, unassigned) [Compound No. 17, 5-Chloro-3-(2-fluorophenyl)-1-[(4-isopropoxyphenyl)sulfonyl]-6-methoxy-3-[3-(piperazin-1-yl)propyl]-1,3-dihydroindol-2-one hydrochloride]
– | – | – | – | antagonists of V1a receptors | 205 °C | COc1cc2c(cc1Cl)C(CCCN1CCN(C)CC1)(c1ccccc1F)C(=O)N2S(=O)(=O)c1ccc(OC(C)C)cc1.Cl (stereo not shown) [Compound No. 13, 5-Chloro-3-(2-fluorophenyl)-1-[(4-isopropoxyphenyl)sulfonyl]-6-methoxy-3-[3-(4-methylpiperazin-1-yl)propyl]-1,3-dihydroindol-2-one hydrochloride]
8.5 nM | 140 nM | > 1000 nM | > 1000 nM | – | – | COc1ccc(S(=O)(=O)N2C(=O)C(CCCN3CCNCC3)(c3ccccc3F)c3cc(F)c(OC)cc32)cc1C (stereo not shown) [compound 107]
5 nM | 320 nM | > 1000 nM | > 1000 nM | – | – | COc1ccc(S(=O)(=O)N2C(=O)C(CCCN3CCNCC3)(c3ccccc3F)c3cc(OC)c(OC)cc32)cc1C (stereo not shown) [compound 108]
